Data set [1] concerns β-haemolytic streptococci (Groups A, B, C and G). As to the kind of experiment: Gyrase MIC, microdilution broth method (Protocol 1). The following applies: 28 isolates tested. It counts as cell-based. A general note: Dilution methods test growth across graded concentrations, often in twofold steps.
The test system of another data set is M. tuberculosis. As to the kind of experiment: MIC determination procedure for Mycobacterium species (Protocol 4). Format: cell-based.
For a further data set, the system named is M. kansasii. Described as above. Format: cell-based.
A short description of data set [2]: Conversion of Compound W to Compound 23 in liver S9 fractions. It counts as in vitro ADME. The following applies: hepatic and intestinal S9 fractions from rats, dogs, monkeys and humans. As for the experimental part:
The incubations were done for 0, 5, 10, 15, 30, 45 or 60 minutes. The formation of Compound 23 was quantified by LC/MS-MS and data were fitted to the Michaelis Menten equation.

Where a name gives a salt, the structure may show the parent alone.

As usually defined, the MIC90 is the lowest concentration that inhibits either 90% of growth or 90% of the strains tested, depending on the study. Lower therefore signals greater potency. What is called MIC is the least concentration at which growth counts as inhibited. Read a high MIC as a less susceptible organism. Regarding `CCNC(=O)Nc1nc2cc(-c3cnc(C(C)(C)O)nc3)cc([C@H]3CCCO3)c2[nH]1` [Compound 13, methanesulfonic acid salt of 1-ethyl-3-[5-[2-(1-hydroxy-1-methyl-ethyl)pyrimidin-5-yl]-7-[(2R)-tetrahydrofuran-2-yl]-1H-benzimidazol-2-yl]urea], the MIC90 in data set [1] was 0.25 µg/mL. The “MIC Range” value in data set [1] lay in the range of 0.06 to 0.5 µg/mL. Further, the MIC in the data set with M. tuberculosis (ATCC 25618 / H37Rv, M. tuberculosis H37Rv ATCC 25618) was found to be 0.37 µg/mL; with M. tuberculosis (ATCC 35801 / ERDMAN, M. tuberculosis Erdman ATCC 35801), 0.25 µg/mL.
On to `CCNC(=O)Nc1nc2cc(-c3cnc(C(C)(C)O)nc3)c(F)c([C@H]3CCCO3)c2[nH]1` [Compound 23A, methanesulfonic acid salt of 1-ethyl-3-[6-fluoro-5-[2-(1-hydroxy-1-methyl-ethyl)pyrimidin-5-yl]-7-[(2R)-tetrahydrofuran-2-yl]-1H-benzimidazol-2-yl]urea], for which the MIC against M. kansasii (M. kansasii 303) was 0.03 µg/mL; in the data set on M. kansasii (M. kansasii 379) it was less than 0.015 µg/mL.
On to `CCNC(=O)Nc1nc2cc(-c3cnc(C(C)(C)OP(=O)([O-])[O-])nc3)c(F)c([C@H]3CCCO3)c2[nH]1.[Na+].[Na+]` [Compound W, disodium (R)-2-(5-(2-(3-ethylureido)-6-fluoro-7-(tetrahydrofuran-2-yl)-1H-benzo[d]imidazol-5-yl)pyrimidin-2-yl)propan-2-yl phosphate], for which, in data set [2], the “conversion of Compound W to Compound 23” value is reported as “rapidly converts to Compound 23”.

(Values after patent US8481551B2, “Gyrase and topoisomerase IV inhibitors” (Vertex Pharmaceuticals Incorporated, priority 2011, dated 2013).)
